According to patent US10034886B2, “GLP-1 receptor modulators” (Celgene International II SÀRL, priority 2014, dated 2018):
pEC50: −log10 of the molar value.

These compounds were tested against T1, GLP-1R (Homo sapiens, UniProt P43220) (assay: EC20 GLP-1(9-36) PAM cAMP assay: dose response of compound in the presence of fixed concentration of GLP-1(9-36)). Conditions: GLP-1R CRE-bla CHO-K1 cells, compound dose response with fixed concentration of GLP-1(9-36), read-out: EC20 GLP-1(9-36) PAM EC50.
T1 construct: host or cells: GLP-1R CRE-bla CHO-K1 cells
Type: cell-based
Method in brief: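 Positive allosteric modulation read as cAMP accumulation: compound titrations (12 points) combined with an EC20 level of GLP-1(9-36) on CHO-K1 GLP-1R CRE-bla cells, IBMX present, 30 min, 37 °C, pH 7.4 buffer. Luminescence converted to cAMP via standards; non-linear fit gave EC50 and Emax.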

T1 sequence (P43220 24-463): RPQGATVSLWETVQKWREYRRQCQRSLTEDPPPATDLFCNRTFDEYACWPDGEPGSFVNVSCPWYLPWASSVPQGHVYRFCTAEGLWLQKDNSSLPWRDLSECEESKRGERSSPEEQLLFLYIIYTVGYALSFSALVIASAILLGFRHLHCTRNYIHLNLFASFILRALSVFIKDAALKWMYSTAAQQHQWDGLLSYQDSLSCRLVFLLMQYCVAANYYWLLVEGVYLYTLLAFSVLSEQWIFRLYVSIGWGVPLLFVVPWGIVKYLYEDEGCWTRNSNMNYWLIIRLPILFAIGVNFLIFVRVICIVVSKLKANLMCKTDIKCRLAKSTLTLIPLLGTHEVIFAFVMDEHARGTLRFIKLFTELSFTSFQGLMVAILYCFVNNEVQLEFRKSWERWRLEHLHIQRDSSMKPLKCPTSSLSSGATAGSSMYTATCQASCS
T1 sequence (P01275 100-127 partner limits assumed): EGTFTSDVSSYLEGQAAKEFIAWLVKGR

pEC50 | SMILES
> 6.10 | CC(C)(C)c1ccc(C(=O)N[C@@H](Cc2ccc(-c3ncc(-c4ccc(-c5ccc(C6CCC6)cc5)cc4F)cn3)cc2)C(=O)N2CC(C(=O)O)C2)s1 [Compound 1210]
5.00 to 5.30 | CC[C@H]1CC[C@H](c2ccc(-c3cnc(-c4ccc(C[C@H](NC(=O)c5ccc(CC(C)C)s5)C(=O)O)cc4)nc3)cc2)CC1 [Compound 1381]
> 6.10 | CC[C@H]1CC[C@H](c2ccc(-c3ccc(-c4ccc(C[C@H](NC(=O)c5ccc(C(C)(C)C)s5)C(=O)N5CC(C(=O)O)C5)cc4)nc3)cc2)CC1 [Compound 1334]
> 6.10 | CCC[C@H]1CC[C@H](C2CCN(c3cnc(-c4ccc(C[C@H](NC(=O)c5ccc(C(C)(C)C)s5)C(=O)NC(CCCOC)C(=O)O)cc4)nc3)CC2)CC1 (some centres unmarked) [Compound 1458]
> 6.10 | CC[C@H]1CC[C@H](c2ccc(-c3ccc(-c4ccc(C[C@H](NC(=O)c5ccc(C(C)(C)C)s5)C(=O)N5CC(C(=O)O)C5)cc4)cn3)cc2)CC1 [Compound 1341]
> 6.10 | CCC[C@H]1CC[C@H](C2CCN(c3cnc(-c4ccc(C[C@H](NC(=O)c5ccc(C(C)(C)C)s5)C(=O)N[C@H](C(=O)O)[C@@H](C)O)cc4)nc3)CC2)CC1 [Compound 1469]
5.60 to 6.10 | CC(C)(C)c1ccc(C(=O)N[C@@H](Cc2ccc(-c3ncc(N4CCC(c5ccccc5Cl)CC4)cn3)cc2)C(=O)N2CC(C(=O)O)C2)s1 [Compound 1480]

Same assay, conditions: dose response of compound in presence of fixed concentration of GLP-1(9-36), GLP-1R CRE-bla CHO-K1 cells, read-out: EC20 GLP-1(9-36) PAM EC50

pEC50 | SMILES
> 6.10 | CCCCCCCOc1ccc(-c2cnc(-c3ccc(C[C@H](NC(=O)c4ccc(C(C)(C)C)s4)C(=O)N[C@H](C(=O)O)[C@@H](C)O)cc3)nc2)cc1 [Compound 645]
5.30 to 5.60 | CCCCCCCOc1ccc(-c2cnc(-c3ccc(C[C@H](NC(=O)c4cc5cc(OC)ccc5[nH]4)C(=O)N[C@H](C)C(=O)O)cc3)nc2)cc1 [Compound 990]
> 6.10 | CCCCCCCOc1ccc(-c2cnc(-c3ccc(C[C@H](NC(=O)c4ccc(C(C)(C)C)cc4)C(=O)N[C@H](C(=O)O)[C@@H](C)O)cc3)nc2)cc1 [Compound 450]
> 6.10 | CCCCCCCOc1ccc(-c2cnc(-c3ccc(C[C@H](NC(=O)c4ccc(C(C)(C)C)s4)C(=O)N4CC=CC4C(=O)O)cc3)nc2)cc1 (some centres unmarked) [Compound 610]
> 6.10 | CCCCCCCOc1ccc(-c2cnc(-c3ccc(C[C@H](NC(=O)c4ccc(C(C)(C)C)s4)C(=O)N[C@@H](CC(=O)OCc4ccccc4)C(=O)O)cc3)nc2)cc1 [Compound 524, (S)-4-(benzyloxy)-2-((S)-2-(5-(tert-butyl)thiophene-2-carboxamido)-3-(4-(5-(4-(heptyloxy)phenyl)pyrimidin-2-yl)phenyl)propanamido)-4-oxobutanoic acid]
5.60 to 6.10 | CCCCCCCOc1ccc(-c2cnc(-c3ccc(C[C@H](NC(=O)c4ccc(C(C)(C)C)cc4)C(=O)NC(CC(=O)O)c4cccnc4)cc3)nc2)cc1 (some centres unmarked) [Compound 571]
5.30 to 5.60 | CCCCCCCOc1ccc2nc(-c3ccc(C[C@H](NC(=O)c4ccc(C(C)(C)C)cc4)C(=O)O)cc3)ccc2c1 [Compound 671, (S)-2-(4-(tert-butyl)benzamido)-3-(4-(6-(heptyloxy)quinolin-2-yl)phenyl)propanoic acid]
5.30 to 5.60 | CCCCCCCOc1ccc(-c2cnc(-c3ccc(C[C@H](NC(=O)c4ccc(C(=O)c5ccccc5)cc4)C(=O)N[C@H](C)C(=O)O)cc3)nc2)cc1 [Compound 981]
5.00 to 5.30 | CC(C)(C)Cc1noc(-c2cnc(-c3ccc(C[C@H](NC(=O)c4ccc(C(C)(C)C)cc4)C(=O)NCCC(=O)O)cc3)nc2)n1 [Compound 744]
5.30 to 5.60 | CCCCCCCOc1ccc(-c2cnc(-c3ccc(C[C@H](NC(=O)c4cnc(C(C)(C)C)nc4)C(=O)N[C@H](C)C(=O)O)cc3)nc2)cc1 [Compound 832]
5.30 to 5.60 | C[C@@H](NC(=O)[C@H](Cc1ccc(-c2ncc(-c3ccc(C(F)(F)F)cc3)cn2)cc1)NC(=O)c1ccc(C(C)(C)C)s1)C(=O)O [Compound 742]
> 6.10 | CCCCCCCOc1ccc(-c2cnc(-c3ccc(C[C@H](NC(=O)c4ccc(C(C)(C)C)cc4)C(=O)NC(CCC)C(=O)O)cc3)nc2)cc1 (some centres unmarked) [Compound 562]
5.00 to 5.30 | CCCCCCCOc1ccc(-c2cnc(-c3ccc(C[C@H](NC(=O)c4ccc(C(C)(C)C)s4)C(=O)NCC4(O)CCN(C)C4)cc3)nc2)cc1 (some centres unmarked) [Compound 894]
5.60 to 6.10 | CCCCCCCOc1ccc(-c2cnc(-c3ccc(C[C@H](NC(=O)c4ccc(C(C)(C)C)s4)C(=O)NC(C(=O)O)C(O)c4cccnc4)cc3)nc2)cc1 (some centres unmarked) [Compound 907]
5.00 to 5.30 | COc1ccc2cc(-c3cnc(-c4ccc(C[C@H](NC(=O)c5ccc(C(C)(C)C)s5)C(=O)N[C@H](C)C(=O)O)cc4)nc3)ccc2c1 [Compound 997]
5.60 to 6.10 | CCCCCCCOc1ccc(-c2cnc(-c3ccc(C[C@H](NC(=O)c4ccc(C(C)(C)C)s4)C(=O)NC[C@@H](CO)C(=O)O)cc3)nc2)cc1 [Compound 461]
> 6.10 | CCCCCCCOc1ccc(-c2cnc(-c3ccc(C[C@H](NC(=O)c4ccc(C(C)(C)C)s4)C(=O)N4CC(C(=O)O)CC4C)cc3)nc2)cc1 (some centres unmarked) [Compound 892]
5.60 to 6.10 | CCCCOc1ccc(-c2cnc(-c3ccc(C[C@H](NC(=O)c4ccc(C(C)(C)C)cc4)C(=O)N[C@H](C)C(=O)O)cc3)nc2)cc1 [Compound 717]
5.60 to 6.10 | CCCCCCCOc1ccc(-c2cnc(-c3ccc(C[C@H](NC(=O)c4ccc(C5(C)CC5)cc4)C(=O)N4CCC[C@H]4C(=O)O)cc3)nc2)cc1 [Compound 1083]
> 6.10 | CC[C@H]1CC[C@H](c2ccc(-c3cnc(-c4ccc(C[C@H](NC(=O)c5ccc(C(C)(C)C)cc5)C(=O)N5CC(C(=O)O)C5)cc4)nc3)cc2)CC1 [Compound 1170]
5.00 to 5.30 | CCCCCCCOc1ccc(-c2cnc(-c3ccc(C[C@H](NC(=O)c4ccc(C(C)(C)C)s4)C(=O)N4CC[C@@H](N)C4)cc3)nc2)cc1 [Compound 987]
5.60 to 6.10 | CCCCOc1cccc(-c2noc(-c3cnc(-c4ccc(C[C@H](NC(=O)c5ccc(C(C)(C)C)cc5)C(=O)NCCC(=O)O)cc4)nc3)n2)c1 [Compound 759]
5.60 to 6.10 | CC(C)(C)c1ccc(C(=O)N[C@@H](Cc2ccc(-c3ncc(-c4ccc(OCCC5CCCC5)cc4)cn3)cc2)C(=O)N2CC(C(=O)O)C2)s1 [Compound 920]
5.60 to 6.10 | C[C@@H](NC(=O)[C@H](Cc1ccc(-c2ncc(-c3ccc(C4CCCC4)cc3)cn2)cc1)NC(=O)c1ccc(C(C)(C)C)s1)C(=O)O [Compound 1046]
> 6.10 | Cc1ccc(-c2ccc(-c3cnc(-c4ccc(C[C@H](NC(=O)c5ccc(C(C)(C)C)s5)C(=O)N5CC(C(=O)O)C5)cc4)nc3)c(F)c2)cc1Cl [Compound 1196]
5.30 to 5.60 | CCCCCCCOc1ccc(-c2cnc(-c3ccc(C[C@H](NC(=O)c4ccc(C(C)C)s4)C(=O)N4CC[C@H](C(=O)O)C4)cc3)nc2)cc1 [Compound 845]
> 6.10 | CCCCCCCOc1ccc(-c2cnc(-c3ccc(C[C@H](NC(=O)c4ccc(C(C)(C)C)s4)C(=O)N4CC(C(=O)NS(=O)(=O)CC(=O)OC)C4)cc3)nc2)cc1 [Compound 654, methyl (S)-2-(N-(1-(2-(5-(tert-butyl)thiophene-2-carboxamido)-3-(4-(5-(4-(heptyloxy)phenyl)pyrimidin-2-yl)phenyl)propanoyl)azetidine-3-carbonyl)sulfamoyl)acetate]
> 6.10 | CCCCCCCOc1ccc(-c2cnc(-c3ccc(C[C@H](NC(=O)c4ccc(C(C)(C)C)cc4)C(=O)N4CC(OC)CC4C(=O)O)cc3)nc2)cc1 (some centres unmarked) [Compound 624]
